Results taken from US7645903B2, “Use of urea variants as affinity ligands” (GE Healthcare Bio-Sciences AB, priority 2002, dated 2010).

Columns and labels:
human Fab of κ-type = test: STD-NMR binding test (saturation transfer difference NMR screening); design: key to NMR signal, conc 1 / NMR signal, conc 2 / NMR signal, conc 3 / NMR signal, Conc 1 (directed library) / NMR signal, Conc 2 (directed library): 0 no; 1 weak; 2 strong signal; conditions: for NMR signal, conc 2: 100 nM protein; for NMR signal, conc 2 / NMR signal, conc 1 / NMR signal, conc 3: 0.5 mM ligand; for NMR signal, conc 1: 500 nM protein; for NMR signal, conc 3: 20 nM protein; for NMR signal at the first dilution of antibody concentration: conc 2, 100 nM; for binder designation from NMR screening: from signals at 500, 100 and 20 nM antibody
Method: (§1) All NMR experiments were performed at 298 K on a Bruker Avance 500 MHz spectrometer. The 1D saturation transfer difference method (STD-NMR) was used as screening assay (Mayer M. and Meyer B. 1999. Characterisation of Ligand Binding by Saturation Transfer Difference NMR Spectroscopy. Angew. Chem., Int. Ed. 38: 1784-1788). […] The two spectra are recorded in the same experiment in an interleaved fashion. […] It has been shown that the method is capable of detecting ligands with dissociation constants between 10^−3 and 10^−8 M (Mayer M. and Meyer B. 1999. Characterisation of Ligand Binding by Saturation Transfer Difference NMR Spectroscopy. Angew. Chem, Int. Ed. 38: 1784-1788). The strength of the STD-NMR signal depends upon several factors including protein size, offset and duration of the on-resonance irradiation, the dissociation rate constant and the excess of ligand. The STD-NMR method is advantageous in that the detection limits can be tuned for binding by varying the protein concentration while keeping the ligand concentration constant. Under such conditions, at higher protein concentrations the weak to medium binders are detected, whereas at lower protein concentrations only medium binders are detected. For instance, it has been shown before for another enzyme system that both μM and mM binders were detected at a protein concentration of 35 μM whereas only μM binders were detected at protein concentrations of 1 μM and 100 nM (Peng J. W., Lepre C. A., Fejzo J., Abdul-Manan N. and Moore J. M. 2001, Nuclear Magnetic Resonance-Based Approaches for Lead Generation in Drug Discovery, Methods in Enzymology. 338: 202-230). It should be noted that the signal intensity at one specific protein concentration should not be taken as a direct measure of the binding strength. […] On the other hand the signal of the μM binder became even stronger than before (Peng J. W., Lepre C. A., Fejzo J., Abdul-Manan N. and Moore J. M. 2001, Nuclear Magnetic Resonance-Based Approaches for Lead Generation in Drug Discovery, Methods in Enzymology. 338: 202-230).
(§2) Here, three different antibody concentrations were used, namely, 0.5 μM, 100 nM and 20 nM. The antibody used was a human Fab of κ-type. In all cases ligands were tested one-by-one. On-resonance irradiation was set at 0 ppm and off-resonance irradiation was set at 40 ppm. Irradiation time in each scan was 2 s and 16K data points were collected with 1024 scans in total. Compounds for testing were dissolved in DMSOd6 to a concentration of 50 mM and 5 μL of the concentrated ligand solution was added to 495 μL buffer solution. The samples thus consisted of 0.5 mM ligand, 20 mM phosphate buffer, 100 mM NaCl and […] in D2O at pD 7.5, uncorrected reading on pH-meter. Compounds were initially tested for binding with 0.5 μM antibody. Interesting ligands were further tested with protein concentrations of 100 or 20 nM. A one-dimensional ^1H-spectrum was acquired first as reference spectrum and subsequently a saturation transfer difference (STD) spectrum was acquired. Each analysis took 60 minutes on the spectrometer.

[1] = STD-NMR control in the absence of target antibody; design: key to NMR signal, ctrl: 0 no; 1 weak; 2 strong signal; conditions: for NMR signal, ctrl: absence of target antibody
Method: as §1, §2
These compounds were designated as weak binders. […] Of these, three compounds AB—0000860, AB—0000910 and AB—0001250 showing a clear signal (2 in table 1) were further analysed at a second dilution of antibody concentration (conc 3 in table 1).

Row | Compound | NMR signal, conc 2 (human Fab of κ-type) | NMR signal, conc 1 (human Fab of κ-type) | NMR signal, ctrl [1] | NMR signal, conc 3 (human Fab of κ-type) | NMR signal at the first dilution of antibody concentration (human Fab of κ-type) | binder designation from NMR screening (human Fab of κ-type) | NMR signal at a second dilution of antibody concentration (human Fab of κ-type; conc 3, 20 nM) | NMR signal in the absence of target antibody ([1]; no antibody) | NMR signal, Conc 2 (directed library) (human Fab of κ-type; 100 nM antibody) | NMR signal, Conc 1 (directed library) (human Fab of κ-type; 500 nM antibody)
1 | c1ccc(-c2nnc3ccccc3n2)cc1 [AB_0000600, 3-phenyl-1,2,4-benzotriazine] | 1 | 1 | 0 |  |  |  |  |  |  | 
2 | OCC(Oc1ccccc1)c1ccccc1 (stereo not shown) [AB_0000810, 2-phenoxy-2-phenyl-1-ethanol] | 1 | 2 | 0 |  |  |  |  |  |  | 
3 | O=C1CN(c2ccccc2)C(=O)N1c1ccccc1 [AB_0000860, 1,3-diphenylimidazolidine-2,4-dione] | 2 | 2 | 0 | 1 | clear signal | strong binders |  |  |  | 
4 | COc1ccc(CC(C)=O)cc1Br [AB_0000910, 3-bromo-4-methoxyphenylacetone] | 2 | 2 | 0 | 0 | clear signal |  | did not show any signal |  |  | 
5 | N#CCc1ccc(C(=O)c2ccccc2F)s1 [AB_0001010, 2-[5-(2-fluorobenzoyl)-2-thienyl]acetonitrile] | 2 | 2 | 1 | 2 |  | false positive |  | positive NMR signal |  | 
6 | CC(C)=CC1=C(O)C(=O)c2ccccc2C1=O [AB_0001040, 2-hydroxy-3-(2-methyl-1-propenyl)-1,4-naphthoquinone] | 1 | 1 | 0 |  |  |  |  |  |  | 
7 | COC(=O)C1OC1c1cc(Cl)ccc1OC (stereo not shown) [AB_0001240, methyl 3-(5-chloro-2-methoxyphenyl)-2,3-epoxypropionate] | 1 | 1 | 0 |  |  |  |  |  |  | 
8 | CN(C)C(=O)N(C)c1ccc(Cl)c(Cl)c1 [AB_0001250, 1-(3,4-dichlorophenyl)-1,3,3-trimethylurea] | 2 | 2 | 0 | 1 | clear signal | strong binders |  |  |  | 
9 | COC(=O)CCCN(C)C(=O)N(C)c1ccc(F)c(F)c1 [AB_0001258, 4-[3-(3,4-Difluoro-phenyl)-1,3-dimethyl-ureido]-butyric acid methyl ester] |  |  |  |  |  |  |  |  | 1 | 1
10 | S=C(Oc1ccccn1)c1csc(C2COc3ccccc3O2)n1 (stereo not shown) [AB_0001260, 2-pyridyl 2-(2,3-dihydro-1,4-benzodioxin-2-yl)-1,3-thiazole-4-carbothioate] |  | 0 |  |  |  |  |  |  |  | 
11 | OC(CNCc1ccc(Cl)cc1)CSc1ccccc1 (stereo not shown) [AB_0001270, 1-[(4-chlorobenzyl)amino]-3-(phenylthio)propan-2-ol] | 0 | 1 |  |  |  |  |  |  |  | 
12 | Clc1ccc(OCc2noc(CSc3ccccn3)n2)cc1 [AB_0001290, 3-[(4-chlorophenoxy)methyl]-5-[(2-pyridylthio)methyl]-1,2,4-oxadiazole] | 1 | 2 | 0 |  |  |  |  |  |  | 
13 | O=C(c1cccs1)c1cnc2ccccn2c1=O [AB_0001300, 3-(2-thienylcarbonyl)-4h-pyrido[1,2-a]pyrimidin-4-one] | 0 | 1 |  |  |  |  |  |  |  | 
